“And” between values parts separate entries of the source, which are not always exact repeats. Equal values may be shown once.
Columns and labels:
[1] = molecular target: Estrogen receptor (Bos taurus) (UniProt Q9XSB5+P49884); experiment: Relative binding affinity for calf uterine estrogen receptor by 17-beta-[3H]-estradiol competition.; format: protein assay
[2] = molecular target: T1, Estrogen receptor (Mus musculus) (UniProt O08537+P19785); experiment: Estrogenic activity in uterotrophic assay in mice at 1000 ug/day; format: functional
[3] = molecular target: T1, Estrogen receptor (Mus musculus); experiment: Estrogenic activity in uterotrophic assay in mice at 1 ug/day; format: functional
[4] = molecular target: T1, Estrogen receptor (Mus musculus); experiment: Estrogenic activity in uterotrophic assay in mice at 10 ug/day; format: functional
[5] = molecular target: T1, Estrogen receptor (Mus musculus); experiment: Estrogenic activity in uterotrophic assay in mice at 0.4 ug/day with estrone; format: functional
[6] = molecular target: T1, Estrogen receptor (Mus musculus); experiment: Estrogenic activity in uterotrophic assay in mice at 100 ug/day; format: functional
[7] = molecular target: T1, Estrogen receptor (Mus musculus); experiment: Estrogenic activity in uterotrophic assay in mice at 0 ug/day; format: functional
[8] = molecular target: T1, Estrogen receptor (Mus musculus); experiment: Inhibition of anti-uterotrophic activity in mice at 250 ug/day (%inhibition=100-(E S,T-EV)x100); format: functional
[9] = molecular target: T1, Estrogen receptor (Mus musculus); experiment: Estrogenic activity in uterotrophic assay in mice at 500 ug/day
[10] = molecular target: T1, Estrogen receptor (Mus musculus); experiment: Anti-uterotrophic activity in mice at 250 ug/day; format: functional
[11] = molecular target: T1, Estrogen receptor (Mus musculus); experiment: Anti-uterotrophic activity in mice at 25 ug/day
[12] = molecular target: T1, Estrogen receptor (Mus musculus); experiment: Inhibition of anti-uterotrophic activity in mice at 25 ug/day (%inhibition=100-(E S,T-EV)x100); format: functional
[13] = molecular target: T1, Estrogen receptor (Mus musculus); experiment: Anti-uterotrophic activity in mice at 5 ug/day; format: functional
[14] = molecular target: T1, Estrogen receptor (Mus musculus); experiment: Estrogenic activity in uterotrophic assay in mice at 250 ug/day; format: functional
[15] = molecular target: T1, Estrogen receptor (Mus musculus); experiment: Anti-uterotrophic activity in mice at 100 ug/day; format: functional
[16] = molecular target: T1, Estrogen receptor (Mus musculus); experiment: Estrogenic activity in uterotrophic assay in mice at 50 ug/day; format: functional
[17] = molecular target: T1, Estrogen receptor (Mus musculus); experiment: Inhibition of anti-uterotrophic activity in mice at 5 ug/day (%inhibition=100-(E S,T-EV)x100); format: functional
[18] = molecular target: T1, Estrogen receptor (Mus musculus); experiment: Estrogenic activity in uterotrophic assay in mice at 2 ug/day; format: functional
[19] = molecular target: T1, Estrogen receptor (Mus musculus); experiment: Inhibition of anti-uterotrophic activity in mice at 100 ug/day (%inhibition=100-(E S,T-EV)x100); format: functional
[20] = molecular target: T1, Estrogen receptor (Mus musculus); experiment: Anti-uterotrophic activity in mice at 0 ug/day; format: functional

T1 sequence (O08537 whole entry, looked up): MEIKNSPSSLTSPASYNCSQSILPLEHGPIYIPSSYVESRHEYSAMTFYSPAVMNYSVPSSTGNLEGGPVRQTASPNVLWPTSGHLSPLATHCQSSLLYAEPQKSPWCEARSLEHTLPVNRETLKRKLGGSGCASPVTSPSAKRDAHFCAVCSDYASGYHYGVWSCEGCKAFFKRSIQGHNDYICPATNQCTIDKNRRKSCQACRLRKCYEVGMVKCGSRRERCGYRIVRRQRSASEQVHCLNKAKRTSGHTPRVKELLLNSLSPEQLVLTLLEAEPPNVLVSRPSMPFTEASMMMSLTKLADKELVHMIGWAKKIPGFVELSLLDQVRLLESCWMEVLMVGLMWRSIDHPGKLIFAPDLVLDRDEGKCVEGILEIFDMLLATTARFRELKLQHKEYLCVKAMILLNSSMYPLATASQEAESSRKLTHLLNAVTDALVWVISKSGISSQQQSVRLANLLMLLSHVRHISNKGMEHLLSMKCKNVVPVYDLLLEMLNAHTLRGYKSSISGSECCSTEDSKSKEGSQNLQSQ
T1 sequence (P19785 whole entry, looked up): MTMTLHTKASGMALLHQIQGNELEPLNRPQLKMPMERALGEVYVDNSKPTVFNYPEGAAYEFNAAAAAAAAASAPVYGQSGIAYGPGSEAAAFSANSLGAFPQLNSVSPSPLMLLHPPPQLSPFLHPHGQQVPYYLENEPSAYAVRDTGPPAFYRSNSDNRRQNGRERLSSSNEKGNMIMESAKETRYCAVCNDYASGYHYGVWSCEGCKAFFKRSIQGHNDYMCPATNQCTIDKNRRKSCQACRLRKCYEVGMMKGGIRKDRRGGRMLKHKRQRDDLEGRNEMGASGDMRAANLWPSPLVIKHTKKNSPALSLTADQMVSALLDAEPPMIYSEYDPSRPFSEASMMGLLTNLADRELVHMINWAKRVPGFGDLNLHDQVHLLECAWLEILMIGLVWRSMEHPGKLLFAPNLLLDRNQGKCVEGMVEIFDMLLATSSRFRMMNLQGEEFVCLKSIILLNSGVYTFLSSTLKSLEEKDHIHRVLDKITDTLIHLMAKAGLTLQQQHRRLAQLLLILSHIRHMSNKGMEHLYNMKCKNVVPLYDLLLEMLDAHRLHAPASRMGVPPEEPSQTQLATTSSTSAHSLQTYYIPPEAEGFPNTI

Row | Compound | relative binding affinity (RBA) [1] | Effect [4] | Effect [5] | Effect [7] | further results
1 | CCC(c1ccc(O)c(N(C)C)c1)C(CC)c1ccc(O)c(N(C)C)c1 (stereo not given) | < 0.01 | – | – | – | –
2 | CCC(c1ccc(O)cc1C)C(CC)c1ccc(O)cc1C (stereo not given) | 8.5 | 36.6 mg 100g-1 | 43.9 mg 100g-1 | 16.9 mg 100g-1 | Effect [2]: 32.6 mg 100g-1; Effect [3]: 46.3 mg 100g-1; Effect [6]: 38.4 mg 100g-1
3 | CCC(c1ccc(O)c(O)c1)C(CC)c1ccc(O)c(O)c1 (stereo not given) | 20 | 34.7 mg 100g-1 | 54.3 mg 100g-1 | 15.4 mg 100g-1 | inhibition [8]: 0%; Effect [9]: 49.8 mg 100g-1; Effect [10]: 43.6 mg 100g-1; Effect [11]: 37 mg 100g-1; inhibition [12]: 20%; Effect [13]: 24.1 mg 100g-1; Effect [14]: 50.1 mg 100g-1; Effect [15]: 39.2 mg 100g-1; Effect [16]: 39.1 mg 100g-1; inhibition [17]: 59%; Effect [18]: 24.6 mg 100g-1; inhibition [19]: 13%
4 | CCOCc1cc(C(CC)C(CC)c2ccc(O)c(COCC)c2)ccc1O (stereo not given) | 0.18 | – | – | – | –
5 | CCC(c1ccc(O)c(I)c1)C(CC)c1ccc(O)c(I)c1 (stereo not given) | 0.17 | – | – | – | –
6 | CCC(c1ccc(O)cc1O)C(CC)c1ccc(O)cc1O (stereo not given) | 32 | 41.6 mg 100g-1 | 51.4 mg 100g-1 | 16.4 mg 100g-1 | Effect [3]: 53.6 mg 100g-1
7 | CCC(c1ccc(O)cc1F)C(CC)c1ccc(O)cc1F (stereo not given) | 6.5 | 39 mg 100g-1 | 43.9 mg 100g-1 | 16.9 mg 100g-1 | Effect [2]: 30.5 mg 100g-1; Effect [3]: 47.6 mg 100g-1; Effect [6]: 34.3 mg 100g-1
8 | CC[C@H](c1ccc(O)cc1)[C@@H](CC)c1ccc(O)cc1 | 27 | – | – | – | –
9 | CCC(c1ccc(O)c(CN(C)C)c1)C(CC)c1ccc(O)c(CN(C)C)c1 (stereo not given) | 0.04 | – | – | – | –
10 | CCc1cc(C(CC)C(CC)c2ccc(O)c(CC)c2)ccc1O (stereo not given) | 1.2 | – | – | – | –
11 | CCc1cc(O)ccc1C(CC)C(CC)c1ccc(O)cc1CC (stereo not given) | 3.7 | – | – | – | –
12 | CCC(c1ccc(O)c(CO)c1)C(CC)c1ccc(O)c(CO)c1 (stereo not given) | 0.71 | – | – | – | –
13 | CCC(c1ccc(O)c(N)c1)C(CC)c1ccc(O)c(N)c1 (stereo not given) | 5.6 | 24.3 mg 100g-1 | 50.4 mg/100 g | 16.9 mg 100g-1 | Effect [2]: 45.6 mg 100g-1; Effect [3]: 23.3 mg 100g-1; Effect [20]: 50.4 mg 100g-1 and 19.4 mg 100g-1; Effect [11]: 34.6 mg 100g-1; inhibition [12]: 0%; Effect [6]: 44.7 mg/100 g; inhibition [17]: 78%
14 | CCC(c1ccc(O)c([N+](=O)[O-])c1)C(CC)c1ccc(O)c([N+](=O)[O-])c1 (stereo not given) | 0.14 | – | – | – | –
15 | CCC(c1ccc(O)cc1Cl)C(CC)c1ccc(O)cc1Cl (stereo not given) | 2.2 | – | – | – | –
16 | CCC(c1ccc(O)c(C)c1)C(CC)c1ccc(O)c(C)c1 (stereo not given) | 8.1 | 40 mg 100g-1 | 44.9 mg 100g-1 | 10 mg 100g-1 | Effect [2]: 34 mg 100g-1; Effect [3]: 48.7 mg 100g-1; Effect [6]: 33.8 mg 100g-1
17 | CCC(c1ccc(O)c(COC)c1)C(CC)c1ccc(O)c(COC)c1 (stereo not given) | 0.55 | – | – | – | –
18 | CCC(c1ccc(O)c(C(C)=O)c1)C(CC)c1ccc(O)c(C(C)=O)c1 (stereo not given) | < 0.01 | – | – | – | –
19 | CCC(c1ccc(O)c(Cl)c1)C(CC)c1ccc(O)c(Cl)c1 (stereo not given) | 1.6 | – | – | – | –
20 | CCC(c1ccc(O)c(Br)c1)C(CC)c1ccc(O)c(Br)c1 (stereo not given) | 0.25 | – | – | – | –
21 | CCC(c1ccc(O)cc1Br)C(CC)c1ccc(O)cc1Br (stereo not given) | 1.8 | – | – | – | –
22 | CCC(c1ccc(O)c(F)c1)C(CC)c1ccc(O)c(F)c1 (stereo not given) | 16 | 43.4 mg 100g-1 | 44.9 mg 100g-1 | 10 mg 100g-1 | Effect [2]: 38.8 mg 100g-1; Effect [3]: 50.7 mg 100g-1; Effect [6]: 40.4 mg 100g-1

Reference: ChEMBL document CHEMBL1122266, “Ring-substituted 1,2-dialkylated 1,2-bis(hydroxyphenyl)ethanes. 1. Synthesis and estrogen receptor binding affinity of 2,2'- and 3,3'-disubstituted hexestrols” (J Med Chem, 1983)
